Reference: US10519134B2, “Pyrazole compounds and methods of making and using same” (Lundbeck La Jolla Research Center, Inc., priority 2015, dated 2019)

Key:
Assay type in all cases: biochemical
MAGL [1] = biological target: T1, MAGL (Mus musculus, UniProt O35678); assay: In vitro competitive activity-based protein profiling (mouse), MAGL gel band; conditions: for inhibition at 1 µM: read-out: MAGL % inh. 1 μM; for IC50: mouse
T1 construct: Proteomes (mouse brain membrane fraction or cell lysates); from tissue; host or cells: mouse brain membrane fraction (or cell lysates)
T1 sequence (O35678 1-303): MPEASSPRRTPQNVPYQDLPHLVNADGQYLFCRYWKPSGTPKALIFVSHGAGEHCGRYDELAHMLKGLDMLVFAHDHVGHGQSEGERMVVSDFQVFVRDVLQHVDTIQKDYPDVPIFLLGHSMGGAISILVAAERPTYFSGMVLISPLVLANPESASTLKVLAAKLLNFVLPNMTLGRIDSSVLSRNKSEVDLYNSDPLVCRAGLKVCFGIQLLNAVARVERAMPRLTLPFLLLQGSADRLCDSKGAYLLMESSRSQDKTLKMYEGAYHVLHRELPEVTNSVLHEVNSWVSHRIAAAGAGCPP
Outline: (§1)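 Mouse brain membrane proteome or cell lysate (1.0 mg/mL protein) preincubated 30 min at 37 °C with varying inhibitor concentrations, then labelled 30 min at 37 °C with FP-Rh or HT-01 probe (50 μM stock). After SDS-PAGE, activity taken from fluorescent intensity of the MAGL and FAAH gel bands.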

FAAH = biological target: T2, FAAH (Mus musculus, UniProt O08914); assay: In vitro competitive activity-based protein profiling (mouse), FAAH gel band; conditions: for inhibition at 1 µM: read-out: FAAH % inh. 1 μM; for IC50: mouse
T2 construct: Proteomes (mouse brain membrane fraction or cell lysates); from tissue; host or cells: mouse brain membrane fraction (or cell lysates)
T2 sequence (O08914 1-579): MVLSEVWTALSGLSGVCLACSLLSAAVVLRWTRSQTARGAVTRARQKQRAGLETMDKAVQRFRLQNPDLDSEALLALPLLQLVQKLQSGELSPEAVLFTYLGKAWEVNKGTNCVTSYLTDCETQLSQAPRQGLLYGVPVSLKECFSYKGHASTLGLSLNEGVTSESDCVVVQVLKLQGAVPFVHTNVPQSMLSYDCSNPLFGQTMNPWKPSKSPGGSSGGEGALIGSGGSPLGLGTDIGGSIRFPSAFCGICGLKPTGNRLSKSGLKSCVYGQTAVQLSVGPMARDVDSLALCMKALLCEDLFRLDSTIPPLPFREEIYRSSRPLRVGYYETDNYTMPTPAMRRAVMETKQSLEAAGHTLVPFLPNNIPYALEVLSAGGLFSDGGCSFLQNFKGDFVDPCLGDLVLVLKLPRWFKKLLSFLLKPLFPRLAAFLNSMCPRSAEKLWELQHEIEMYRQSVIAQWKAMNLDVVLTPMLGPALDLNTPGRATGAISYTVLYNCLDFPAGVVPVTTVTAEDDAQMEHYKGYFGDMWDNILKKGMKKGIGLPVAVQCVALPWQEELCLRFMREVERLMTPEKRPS
Outline: as §1

MAGL [2] = biological target: T3, MAGL (Homo sapiens, UniProt Q99685); assay: In vitro competitive activity-based protein profiling (human), MAGL gel band
T3 construct: Proteomes (human prefrontal cortex or cell membrane fractions); from tissue; host or cells: human prefrontal cortex (or cell membrane fractions)
T3 sequence (Q99685 1-303): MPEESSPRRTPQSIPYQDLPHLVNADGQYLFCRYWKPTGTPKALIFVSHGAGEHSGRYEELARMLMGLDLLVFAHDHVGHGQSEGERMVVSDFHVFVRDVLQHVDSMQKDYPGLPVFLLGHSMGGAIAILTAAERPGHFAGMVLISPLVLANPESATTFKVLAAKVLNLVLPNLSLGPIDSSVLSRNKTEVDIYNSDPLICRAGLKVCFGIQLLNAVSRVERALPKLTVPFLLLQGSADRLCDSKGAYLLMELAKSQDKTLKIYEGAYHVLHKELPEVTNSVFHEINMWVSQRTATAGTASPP
Method: In Vitro Competitive Activity-Based Protein Profiling (Human).
Proteomes (human prefrontal cortex or cell membrane fractions) (50 μL, 1.0-2.0 mg/mL total protein concentration) were preincubated with varying concentrations of inhibitors at 37° C. After 30 min, FP-Rh or JW912 (1.0 μL, 50 μM in DMSO) was added and the mixture was incubated for another 30 min at room temperature. Reactions were quenched with SDS loading buffer (15 μL—4×) and run on SDS-PAGE. Following gel imaging, serine hydrolase activity was determined by measuring fluorescent intensity of gel bands corresponding to MAGL using ImageJ 1.49k software.

| inhibition at 1 µM (MAGL [1]) [%] | inhibition at 1 µM (FAAH) [%] | IC50 (MAGL [2]) [nM] | IC50 (MAGL [1]) [nM] | IC50 (FAAH) [nM] | inhibition at 1 µM (MAGL [2]; at 1 μM, read-out: MAGL human % inh at 1 μM) [%] | SMILES |
| --- | --- | --- | --- | --- | --- | --- |
| ≥ 75 | 0 to 25 | 100 to 1000 |  |  |  | CS(=O)(=O)Nc1ccn(C(=O)N2CCN(Cc3ccc(C(F)(F)F)cc3-c3nnco3)CC2)n1 [Example 113, N-(1-(4-(2-(1,3,4-oxadiazol-2-yl)-4-(trifluoromethyl)benzyl)piperazine-1-carbonyl)-1H-pyrazol-3-yl)methanesulfonamide] |
| ≥ 75 | 0 to 25 | ≤ 100 |  |  |  | CC(=O)N1CCN(c2cc(C(F)(F)F)ccc2CN2CCN(C(=O)n3ccc(NS(C)(=O)=O)n3)CC2)CC1 [Example 174, N-(1-(4-(2-(4-acetylpiperazin-1-yl)-4-(trifluoromethyl)benzyl)piperazine-1-carbonyl)-1H-pyrazol-3-yl) methanesulfonamide] |
| ≥ 75 | 0 to 25 | ≤ 100 |  |  |  | CC(=O)Nc1ccn(C(=O)N2CCN(Cc3ccc(C(F)(F)F)cc3C3CCN(CC(=O)O)CC3)CC2)n1 [Example 285, 2-(4-(2-((4-(3-acetamido-1H-pyrazole-1-carbonyl)piperazin-1-yl)methyl)-5-(trifluoromethyl)phenyl)piperidin-1-yl)acetic acid] |
| ≥ 75 | 0 to 25 | ≤ 100 | ≤ 100 | 1000 to 10000 |  | CC(=O)Nc1ccn(C(=O)N2CCN(Cc3ccc(C(F)(F)F)cc3N3CCN4CCC[C@H]4C3)CC2)n1 [Example 267, (S)-N-(1-(4-(2-(hexahydropyrrolo[1,2-a]pyrazin-2(1H)-yl)-4-(trifluoromethyl)benzyl)piperazine-1-carbonyl)-1H-pyrazol-3-yl)acetamide] |
| ≥ 75 | 0 to 25 | ≤ 100 |  |  |  | CS(=O)(=O)Nc1ccn(C(=O)N2CCN(Cc3ccc(C(F)(F)F)cc3N3CCN(C(N)=O)CC3)CC2)n1 [Example 171, 4-(2-((4-(3-(methylsulfonamido)-1H-pyrazole-1-carbonyl)piperazin-1-yl)methyl)-5-(trifluoromethyl)phenyl)piperazine-1-carboxamide] |
| ≥ 75 | 0 to 25 | ≤ 100 |  |  |  | CS(=O)(=O)Nc1ccn(C(=O)N2CCN(Cc3ccc(Cl)c(N4CC[C@@H](O)C4)c3)CC2)n1 [Example 293, (R)-N-(1-(4-(4-chloro-3-(3-hydroxypyrrolidin-1-yl)benzyl)piperazine-1-carbonyl)-1H-pyrazol-3-yl) methanesulfonamide] |
| ≥ 75 | 0 to 25 | ≤ 100 | ≤ 100 | 1000 to 10000 |  | CC(=O)Nc1ccn(C(=O)N2CCN(Cc3ccc(C(F)(F)F)cc3N3CCN4CCC[C@@H]4C3)CC2)n1 [Example 268, (R)-N-(1-(4-(2-(hexahydropyrrolo[1,2-a]pyrazin-2(1H)-yl)-4-(trifluoromethyl)benzyl)piperazine-1-carbonyl)-1H-pyrazol-3-yl)acetamide] |
| ≥ 75 | 0 to 25 | ≤ 100 |  |  |  | CS(=O)(=O)Nc1ccn(C(=O)N2CCC3(CCCN3Cc3ccc(C(F)(F)F)cc3Cl)CC2)n1 [Example 197, N-(1-(1-(2-chloro-4-(trifluoromethyl)benzyl)-1,8-diazaspiro[4.5]decane-8-carbonyl)-1H-pyrazol-3-yl) methanesulfonamide] |
| ≥ 75 | 0 to 25 | ≤ 100 |  |  |  | CS(=O)(=O)Nc1ccn(C(=O)N2CCN(Cc3ccc(C(F)(F)F)c(N4CCN5CCC[C@H]5C4)c3)CC2)n1 [Example 287, (S)-N-(1-(4-(3-(hexahydropyrrolo[1,2-a]pyrazin-2(1H)-yl)-4-(trifluoromethyl)benzyl)piperazine-1-carbonyl)-1H-pyrazol-3-yl) methanesulfonamide] |
| ≥ 75 | 0 to 25 | ≤ 100 |  |  |  | CS(=O)(=O)Nc1ccn(C(=O)N2CCN(Cc3ccc(C(F)(F)F)cc3N3CCC(F)CC3)CC2)n1 [Example 196, N-(1-(4-(2-(4-fluoropiperidin-1-yl)-4-(trifluoromethyl)benzyl)piperazine-1-carbonyl)-1H-pyrazol-3-yl) methanesulfonamide] |
| ≥ 75 | 0 to 25 | ≤ 100 |  |  |  | CS(=O)(=O)Nc1ccn(C(=O)N2CCN(Cc3ccc(C(F)(F)F)cc3N3CCN(S(C)(=O)=O)CC3)CC2)n1 [Example 173] |
| ≥ 75 | 0 to 25 | 100 to 1000 |  |  |  | CS(=O)(=O)Nc1ccn(C(=O)N2CCN(Cc3ccc(C(F)(F)F)cc3-c3ccn(CC(=O)O)n3)CC2)n1 [Example 213, 2-(3-(2-((4-(3-(methylsulfonamido)-1H-pyrazole-1-carbonyl)piperazin-1-yl)methyl)-5-(trifluoromethyl)phenyl)-1H-pyrazol-1-yl)acetic acid] |
| ≥ 75 | 0 to 25 | ≤ 100 |  |  |  | CS(=O)(=O)Nc1ccn(C(=O)N2CCN(Cc3ccc(C(F)(F)F)cc3N3CC4COCC4C3)CC2)n1 (stereo not drawn) [Example 205, N-(1-(4-(2-(tetrahydro-1H-furo[3,4-c]pyrrol-5(3H)-yl)-4-(trifluoromethyl)benzyl)piperazine-1-carbonyl)-1H-pyrazol-3-yl) methanesulfonamide] |
| 0 to 25 | 0 to 25 |  |  |  | 25 | CS(=O)(=O)Nc1ccn(C(=O)N2CCN(Cc3ccc(C(F)(F)F)cc3C3CCN(CC(=O)O)CC3)CC2)n1 [Example 118, 2-(4-(2-((4-(3-(methylsulfonamido)-1H-pyrazole-1-carbonyl)piperazin-1-yl)methyl)-5-(trifluoromethyl)phenyl)piperidin-1-yl)acetic Acid] |
| ≥ 75 | 0 to 25 | 100 to 1000 |  |  |  | CS(=O)(=O)Nc1ccn(C(=O)N2CCN(Cc3ccc(C(F)(F)F)cc3N3CCC(c4nnn[nH]4)CC3)CC2)n1 [Example 240, N-(1-(4-(2-(4-(1H-tetrazol-5-yl)piperidin-1-yl)-4-(trifluoromethyl)benzyl)piperazine-1-carbonyl)-1H-pyrazol-3-yl) methanesulfonamide] |
| ≥ 75 | 0 to 25 | ≤ 100 | ≤ 100 | 1000 to 10000 |  | CC(=O)Nc1ccn(C(=O)N2CCN(Cc3ccc(C(F)(F)F)cc3N3CCC(C(C)(C)O)CC3)CC2)n1 [Example 266, N-(1-(4-(2-(4-(2-hydroxypropan-2-yl)piperidin-1-yl)-4-(trifluoromethyl)benzyl)piperazine-1-carbonyl)-1H-pyrazol-3-yl)acetamide] |
| ≥ 75 | 0 to 25 | 100 to 1000 |  |  |  | CS(=O)(=O)Nc1ccn(C(=O)N2CCN(Cc3ccc(C(F)(F)F)cc3N3CCN(C(=O)N4CCC4)CC3)CC2)n1 [Example 187, N-(1-(4-(2-(4-(azetidine-1-carbonyl)piperazin-1-yl)-4-(trifluoromethyl)benzyl)piperazine-1-carbonyl)-1H-pyrazol-3-yl) methanesulfonamide] |

| SMILES | inhibition at 1 µM (MAGL [1]) [%] | inhibition at 1 µM (FAAH) [%] | IC50 (MAGL [2]) [nM] | IC50 (MAGL [1]) [nM] | IC50 (FAAH) [nM] | inhibition at 1 µM (MAGL [2]; at 1 μM, read-out: MAGL human % inh at 1 μM) [%] |
| --- | --- | --- | --- | --- | --- | --- |
| CS(=O)(=O)Nc1ccn(C(=O)N2CCN(Cc3ccc(C(F)(F)F)cc3N3C4CCC3CN(S(C)(=O)=O)C4)CC2)n1 [Example 208, N-(1-(4-(2-(3-(methylsulfonyl)-3,8-diazabicyclo[3.2.1]octan-8-yl)-4-(trifluoromethyl)benzyl)piperazine-1-carbonyl)-1H-pyrazol-3-yl) methanesulfonamide] | ≥ 75 | 0 to 25 | ≤ 100 |  |  |  |
